Test results from paper PMC5924986, “Cellular and Biophysical Pipeline for the Screening of Peroxisome Proliferator-Activated Receptor Beta/Delta Agonists: Avoiding False Positives” (PPAR Research, 2018).
“And” between values parts separate entries of the source, which are not always exact repeats. Identical values can stand only once. “Also recorded” adds a separate entry of the source. Like-named read-outs stand apart in the source and are kept apart here. Blank lines part the entries; values can stand above or below the compound they belong to.

How the values were obtained:
PPARß/δ [1] = settings: read-out: EC50 found in the literature, cited from earlier work
hPPARß/δ LBD [2] = target: T1, hPPARß/δ LBD (Homo sapiens, UniProt Q03181); test: Qualitative thermal shift assay (TSA); format: binding; settings: commercial agonists at 30 μM, 10 μM PPARß/δ, vs apo-PPARß/δ
T1 construct: cDNA (amino acids 171–441) inserted into pET28a vector; His-tag; made in house; host or cells: Escherichia coli BL21(DE3)
T1 sequence (Q03181 171-441): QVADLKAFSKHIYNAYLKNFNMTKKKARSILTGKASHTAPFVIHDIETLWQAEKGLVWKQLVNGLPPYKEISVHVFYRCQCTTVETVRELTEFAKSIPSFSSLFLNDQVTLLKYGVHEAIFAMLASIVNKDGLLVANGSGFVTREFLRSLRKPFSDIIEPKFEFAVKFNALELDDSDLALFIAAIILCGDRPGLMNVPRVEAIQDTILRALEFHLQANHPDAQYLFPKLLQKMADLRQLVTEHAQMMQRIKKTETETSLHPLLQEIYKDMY

hPPARß/δ LBD [3] = target: T1, hPPARß/δ LBD; test: ANS fluorescence quenching; format: binding; settings: 2 μM hPPARß/δ LBD, 20 μM ANS; for ANS fluorescence quenching / ANS probe displacement (qualitative): compounds 0.3–50 μM, extracts 0.005–1 mg/mL
PPARß/δ [4] = target: T2, PPARß/δ (Homo sapiens, UniProt Q03181); test: PPARß/δ transactivation assay (Gal4-DBD/PPARß/δ-LBD dual luciferase reporter-gene assay in 293T cells); format: cell-based; settings: dose-response curves 10^−11–10^−6 M
T2 construct: expressed in transfected cells; host or cells: 293T cells (ATCC CRL-3216), transient transfection
T2 sequence (Q03181 211-439 limits assumed): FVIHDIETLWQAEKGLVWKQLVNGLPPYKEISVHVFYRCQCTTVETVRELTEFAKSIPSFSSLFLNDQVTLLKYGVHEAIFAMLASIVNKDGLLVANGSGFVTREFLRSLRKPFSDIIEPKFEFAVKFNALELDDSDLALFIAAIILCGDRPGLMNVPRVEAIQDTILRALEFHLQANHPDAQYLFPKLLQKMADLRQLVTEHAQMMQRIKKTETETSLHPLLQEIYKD

293T cells = test: Cytotoxicity: MTT assay and Renilla reporter expression; format: cell-based; settings: 1 μM, 1% DMSO as vehicle, compared with 0.1% or 1% DMSO
Protocol: We performed vector normalization with the raw luminescence data to control for differences in transfection efficiency between samples. For vector normalization we calculate luciferase signal/Renilla signal. The assay performance was assessed by plate statistics (signal-to-background ratio, Z′-factor, coefficient of variation) and apparent cytotoxicity was a measure of Renilla luciferase parameters. For Z′-factor calculation, we consider, after vector normalization, the positive controls (GW0742) as signal, and negative controls (DMSO) as background. For cytotoxicity, wells with expression of Renilla reporter five standard deviations (5 × SD) below the mean value of the controls treatment were considered cytotoxic and consequently were disregarded. We considered as hit candidates compounds/extracts with luminescence firefly/Renilla ratio 7 times above the standard deviation of negative controls (DMSO) from the same plate. […]
Additionally, we related the 3-(4,5-dimethyl-2-thia-zoyl)-2,5-diphenyl-2H-tetrazolium bromide (MTT) results with Renilla reporter expression to assess when a test compound/extract might be toxic to the cells, only based on Renilla reporter expression. […] The absorbance was measured at 562 nm using an EnSpire® Multimode Plate Reader (Perkin Elmer). […] Data were analyzed by 2-way ANOVA followed by Sidak's multiple comparison test in GraphPad Prism software. […]

Tm variation (hPPARß/δ LBD [2]): 7.3 ± 0.7 °C and 7.3 °C
ANS fluorescence quenching / ANS probe displacement (qualitative) (hPPARß/δ LBD [3]): showed quenching in the ANS fluorescence
Kd (hPPARß/δ LBD [3]; read-out: apparent dissociation constant (Kdapp)): 1090 ± 80 nM
EC50 (PPARß/δ [4]): 26.4 nM
SMILES: CCCc1c(OCCCOc2ccc(OCC(=O)O)cc2)ccc(C(C)=O)c1O [L-165,041]
EC50 (PPARß/δ [1]; ref [25]): 125 nM

SMILES: Cc1cc(SCc2sc(-c3ccc(C(F)(F)F)c(F)c3)nc2C)ccc1OCC(=O)O [GW0742]
cytotoxicity (MTT / Renilla reporter expression) (293T cells): no cytotoxicity

SMILES: Cc1cc(SCc2sc(-c3ccc(C(F)(F)F)cc3)nc2C)ccc1OCC(=O)O [GW501516]
EC50 (PPARß/δ [1]; ref [7]): 1.8 nM

Tm variation (hPPARß/δ LBD [2]): 2.9 ± 0.1 °C and 2.9 °C
SMILES: CC(C)(Oc1ccc(CCNC(=O)c2ccc(Cl)cc2)cc1)C(=O)O [Bezafibrate]
ANS fluorescence quenching / ANS probe displacement (qualitative) (hPPARß/δ LBD [3]): did not dislocate the ANS probe; also recorded: did not show a fluorescence quenching
